Measured values reported in paper PMC7305224, “Mutually stabilizing interactions between proto-peptides and RNA” (Nature Communications, 2020).
Non-standard residues stand in square brackets, D forms with d. Residues, ends and D or L forms follow the SMILES beside them. Dab = NCC[C@H](N)C(=O)O

test system: RNA duplex 1; test: CD analysis of RNA duplex with peptides/depsipeptides; format: binding; settings: RNA duplex 5 µM, peptide/depsipeptide 0–10 µM, MES-TEA buffer (60 mM)
Description: The gel was cropped at the edges for clarity. […] […] Red and blue colors of the filled circles correspond to curves of the same color in panel (c). […] […] Scans were from 320 nm to 220 nm with a bandwidth of 5 nm, data pitch of 0.2 nm, and scan rate of 50 nm/min with three accumulations. […] Data were collected in independent triplicates and the data were averaged. Finally, data were smoothed and plotted using Matlab.

| Compound | changes in CD spectra of the RNA duplex upon addition |
| --- | --- |
| CC(=O)N[C@@H](Cc1ccc(O)cc1)C(=O)NCC(=O)N[C@@H](C)C(=O)N[C@@H](CCN)C(=O)N[C@@H](CCCCN)C(=O)N[C@@H](C)C(=O)N[C@@H](CCN)C(=O)N[C@@H](CCCCN)C(=O)N[C@@H](C)C(=O)N[C@@H](CCN)C(=O)N[C@@H](CCCCN)C(=O)N[C@@H](C)C(=O)N[C@@H](CCN)C(=O)N[C@@H](CCCCN)C(=O)N[C@@H](C)C(=O)N[C@@H](CCN)C(=O)N[C@@H](CCCCN)C(N)=O (Ac-YGA[Dab]KA[Dab]KA[Dab]KA[Dab]KA[Dab]K-NH2) | physical association |
| CC(=O)N[C@@H](Cc1ccc(O)cc1)C(=O)NCC(=O)N[C@@H](C)C(=O)N[C@@H](CCN)C(=O)N[C@@H](CCCCN)C(=O)N[C@@H](C)C(=O)N[C@@H](CCN)C(=O)N[C@@H](CCCCN)C(N)=O [Ac-Tyr-Gly-Ala-Dab-Lys-Ala-Dab-Lys-NH2] (Ac-YGA[Dab]KA[Dab]K-NH2) | physical association |
| CC(=O)N[C@@H](Cc1ccc(O)cc1)C(=O)NCC(=O)N[C@@H](C)C(=O)N[C@@H](CCN)C(=O)N[C@@H](CCCCN)C(N)=O [Ac-Tyr-Gly-Ala-Dab-Lys-NH2] (Ac-YGA[Dab]K-NH2) | physical association |
